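Cells were grown in 96-well plates and exposed to each compound for 48 hours at five concentrations; endpoints were interpolated linearly between bracketing concentrations, or set to the highest concentration if not reached. GI50 marks 50% less growth.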 Active and inactive are the calls of the source. Rule as the data show it: active = GI50 up to about 1.1 µM and inactive = higher.
Tests used:
Assay in all cases: growth of human tumour cells (NCI), 48 h
A498 = test system: A498
ACHN = test system: ACHN
CCRF-CEM = test system: CCRF-CEM
COLO 205 = test system: COLO 205
DMS-114 = test system: DMS-114
HCC 2998 = test system: HCC 2998
HCT-116 = test system: HCT-116
HOP-62 = test system: HOP-62
HOP-92 = test system: HOP-92
HT-29 = test system: HT-29
IGROV-1 = test system: IGROV-1
K562 = test system: K562
KM12 = test system: KM12
LXFL 529 = test system: LXFL 529
M14 = test system: M14
M19-MEL = test system: M19-MEL
MOLT-4 = test system: MOLT-4
NCI-H23 = test system: NCI-H23
NCI-H460 = test system: NCI-H460
NCI-H522 = test system: NCI-H522
OVCAR-3 = test system: OVCAR-3
OVCAR-4 = test system: OVCAR-4
RPMI-8226 = test system: RPMI-8226
RXF 393 = test system: RXF 393
SF-268 = test system: SF-268
SF-295 = test system: SF-295
SF-539 = test system: SF-539
SK-MEL-28 = test system: SK-MEL-28
SK-MEL-2 = test system: SK-MEL-2
SK-OV-3 = test system: SK-OV-3
SNB-19 = test system: SNB-19
SNB-75 = test system: SNB-75
SNB-78 = test system: SNB-78
SR = test system: SR
UACC-257 = test system: UACC-257
UACC-62 = test system: UACC-62
UO-31 = test system: UO-31
A549 = test system: A549
EKVX = test system: EKVX
HL-60 = test system: HL-60
KM-20L2 = test system: KM-20L2
Malme-3M = test system: Malme-3M
OVCAR-8 = test system: OVCAR-8
SK-MEL-5 = test system: SK-MEL-5
SN12C = test system: SN12C
SW-620 = test system: SW-620
TK-10 = test system: TK-10
U-251 = test system: U-251
786-0 = test system: 786-0
CAKI-1 = test system: CAKI-1
DLD-1 = test system: DLD-1
DMS-273 = test system: DMS-273
HCT-15 = test system: HCT-15
LOX IMVI = test system: LOX IMVI
NCI-H226 = test system: NCI-H226
OVCAR-5 = test system: OVCAR-5
XF498 = test system: XF498
BT-549 = test system: BT-549
HOP-18 = test system: HOP-18
Hs-578T = test system: Hs-578T
MDA-MB-435 = test system: MDA-MB-435
MDA-N = test system: MDA-N
NCI/ADR-RES = test system: NCI/ADR-RES
PC-3 = test system: PC-3
DU-145 = test system: DU-145
MCF7 = test system: MCF7
MDA-MB-231 = test system: MDA-MB-231
T47D = test system: T47D

Measured: GI50

COc1cc2ccc1NC(=O)N1CCN(CC1)C(=O)Nc1ccc(cc1OC)-c1ccc(c(OC)c1)NC(=O)N1CCN(CC1)C(=O)Nc1ccc-2cc1OC
inactive: A498 > 100 µM | ACHN > 100 µM | CCRF-CEM > 100 µM | COLO 205 > 100 µM | DMS-114 > 100 µM | HCC 2998 > 100 µM | HCT-116 > 100 µM | HOP-62 > 100 µM | HOP-92 > 100 µM | HT-29 > 100 µM | IGROV-1 > 100 µM | K562 > 100 µM | KM12 > 100 µM | LXFL 529 > 100 µM | M14 > 100 µM | M19-MEL > 100 µM | MOLT-4 > 100 µM | NCI-H23 > 100 µM | NCI-H460 > 100 µM | NCI-H522 > 100 µM | OVCAR-3 > 100 µM | OVCAR-4 > 100 µM | RPMI-8226 > 100 µM | RXF 393 > 100 µM | SF-268 > 100 µM | SF-295 > 100 µM | SF-539 > 100 µM | SK-MEL-28 > 100 µM | SK-MEL-2 > 100 µM | SK-OV-3 > 100 µM | SNB-19 > 100 µM | SNB-75 > 100 µM | SNB-78 > 100 µM | SR > 100 µM | UACC-257 > 100 µM | UACC-62 > 100 µM | UO-31 > 100 µM

COc1ccc(C2C(Cl)C(=O)N2NC(=O)c2ccccc2O)cc1 (configuration not stated)
inactive: A549 > 100 µM | CCRF-CEM > 100 µM | COLO 205 > 100 µM | DMS-114 > 100 µM | EKVX > 100 µM | HCT-116 > 100 µM | HL-60 > 100 µM | HOP-62 > 100 µM | HOP-92 > 100 µM | HT-29 > 100 µM | IGROV-1 > 100 µM | K562 > 100 µM | KM-20L2 > 100 µM | KM12 > 100 µM | LXFL 529 > 100 µM | M14 > 100 µM | M19-MEL > 100 µM | MOLT-4 > 100 µM | Malme-3M > 100 µM | NCI-H23 > 100 µM | NCI-H460 > 100 µM | NCI-H522 > 100 µM | OVCAR-3 > 100 µM | OVCAR-4 > 100 µM | OVCAR-8 > 100 µM | RPMI-8226 > 100 µM | RXF 393 > 100 µM | SF-268 > 100 µM | SF-295 > 100 µM | SF-539 > 100 µM | SK-MEL-28 > 100 µM | SK-MEL-2 > 100 µM | SK-MEL-5 > 100 µM | SK-OV-3 > 100 µM | SN12C > 100 µM | SNB-19 > 100 µM | SNB-75 > 100 µM | SR > 100 µM | SW-620 > 100 µM | TK-10 > 100 µM | U-251 > 100 µM | UACC-257 > 100 µM | UACC-62 > 100 µM | UO-31 > 100 µM

Cc1cc(N(CCC#N)S(=O)(=O)c2ccccc2)ccc1/C=C1N=C(/C=C/c2ccccc2)OC\1=O
inactive: 786-0 > 100 µM | A498 > 100 µM | A549 > 100 µM | ACHN > 100 µM | CAKI-1 > 100 µM | CCRF-CEM > 100 µM | COLO 205 > 100 µM | DLD-1 > 100 µM | DMS-114 94.4 µM | DMS-273 > 100 µM | EKVX > 100 µM | HCC 2998 > 100 µM | HCT-116 > 100 µM | HL-60 > 100 µM | HOP-62 > 100 µM | HT-29 > 100 µM | IGROV-1 > 100 µM | K562 94.6 µM | KM-20L2 > 100 µM | KM12 > 100 µM | LOX IMVI > 100 µM | LXFL 529 87.3 µM | M14 > 100 µM | MOLT-4 98.2 µM | Malme-3M > 100 µM | NCI-H226 > 100 µM | NCI-H23 > 100 µM | NCI-H460 > 100 µM | NCI-H522 67.9 µM | OVCAR-3 > 100 µM | OVCAR-5 > 100 µM | OVCAR-8 > 100 µM | RPMI-8226 > 100 µM | RXF 393 > 100 µM | SF-268 > 100 µM | SF-295 > 100 µM | SF-539 > 100 µM | SK-MEL-28 > 100 µM | SK-MEL-2 > 100 µM | SK-MEL-5 77.6 µM | SK-OV-3 > 100 µM | SN12C > 100 µM | SNB-19 > 100 µM | SNB-75 > 100 µM | SNB-78 80.5 µM | SW-620 > 100 µM | TK-10 > 100 µM | U-251 > 100 µM | UACC-257 > 100 µM | UACC-62 > 100 µM | UO-31 70.8 µM | XF498 > 100 µM
> 100 µM: HCT-15

CO[C@H]1C[C@@H]2CC[C@@H](C)[C@@](O)(O2)C(=O)C(=O)N2CCCC[C@H]2C(=O)O[C@H]([C@H](C)C[C@@H]2CC[C@@H](O)[C@H](OC)C2)CC(=O)[C@H](C)C=C(C)[C@@H](O)[C@@H](OC)C(=O)[C@H](C)C[C@H](C)/C=C/C=C/C=C1C
inactive: BT-549 1.12 µM | COLO 205 8.24 µM | DLD-1 10 µM | DMS-273 11 µM | HCT-116 5.71 µM | HOP-18 11.8 µM | KM-20L2 16 µM | KM12 5.96 µM | M14 7.55 µM | MDA-MB-435 1.28 µM | MDA-N 1.56 µM | NCI-H522 1.34 µM | SF-268 1.77 µM
0.117 µM: HCT-15
active: 786-0 0.108 µM | CCRF-CEM < 0.01 µM | DMS-114 0.1 µM | EKVX < 0.0104 µM | HCC 2998 0.167 µM | HOP-62 < 0.0107 µM | HT-29 0.817 µM | Hs-578T 0.0193 µM | IGROV-1 < 0.01 µM | LOX IMVI 0.0175 µM | M19-MEL 0.1 µM | MOLT-4 0.0272 µM | Malme-3M 0.0243 µM | NCI-H23 0.394 µM | NCI/ADR-RES 0.358 µM | OVCAR-4 < 0.01 µM | OVCAR-8 0.0564 µM | PC-3 0.0211 µM | SF-539 < 0.0111 µM | SK-MEL-28 0.251 µM | SK-MEL-5 0.417 µM | SNB-78 0.1 µM | SR < 0.01 µM | TK-10 0.46 µM | UO-31 < 0.01 µM

O=C(Cc1ccc(Cl)c(Cl)c1)N(CCc1ccc(Cl)c(Cl)c1)CCN1CCCC1
inactive: 786-0 1.61 µM | A498 1.85 µM | A549 2.01 µM | ACHN 1.71 µM | BT-549 2.63 µM | CAKI-1 1.67 µM | CCRF-CEM 1.31 µM | COLO 205 1.68 µM | DU-145 2.14 µM | EKVX 1.92 µM | HCC 2998 1.81 µM | HCT-116 1.66 µM | HL-60 1.42 µM | HOP-62 1.79 µM | HOP-92 1.88 µM | HT-29 1.86 µM | Hs-578T 2.98 µM | IGROV-1 1.74 µM | K562 1.87 µM | KM12 1.79 µM | LOX IMVI 1.73 µM | M14 1.77 µM | MCF7 1.73 µM | MDA-MB-231 1.76 µM | MDA-MB-435 1.77 µM | MDA-N 1.67 µM | MOLT-4 1.34 µM | Malme-3M 1.73 µM | NCI-H226 2.01 µM | NCI-H23 1.95 µM | NCI-H460 1.85 µM | NCI-H522 1.77 µM | NCI/ADR-RES 2.04 µM | OVCAR-3 2.26 µM | OVCAR-4 2.19 µM | OVCAR-5 1.8 µM | OVCAR-8 1.93 µM | PC-3 1.83 µM | RPMI-8226 1.71 µM | RXF 393 1.71 µM | SF-268 2.15 µM | SF-295 1.96 µM | SF-539 1.75 µM | SK-MEL-28 1.43 µM | SK-MEL-2 1.8 µM | SK-MEL-5 1.78 µM | SK-OV-3 2.69 µM | SN12C 1.73 µM | SNB-19 2.15 µM | SNB-75 2.05 µM | SR 1.39 µM | SW-620 1.53 µM | T47D 4.06 µM | TK-10 1.81 µM | U-251 1.71 µM | UACC-257 1.91 µM | UACC-62 1.78 µM | UO-31 1.85 µM
1.96 µM: HCT-15

Reference: ChEMBL document CHEMBL1201862, “PubChem BioAssay data set” (2004)
